According to US9315513B2, “Benzimidazole derivatives and their pharmaceutical compositions and uses” (XUANZHU PHARMA CO., LTD., priority 2010, dated 2016):
Where “and” joins values, the source holds several entries; their conditions need not be identical. Equal entries are not always repeated. Structures can show the parent of a compound that is named as a salt.

Assays:
[1] = system: gastric acid in pylorus ligated rats; experiment: Inhibition effects on gastric acid in pylorus ligated rats; format: in vivo, Wistar rats; details: for Inhibition effect on the gastric acid secretion in pylorus ligated rats (conclusion): in comparison with the solvent group
Description: Experimental animals: six-week old clean Wistar rats, male, 140-180 g.
Experimental samples: part of the compounds of the present invention, which structural formula and chemical name are shown in Table 1. […] Before test, these compounds were dissolved with physiological saline.
Pylorus was ligated by passing a suture beneath gastric pylorus, the drugs were immediately administered through duodenum, in which the solvent group was administered with physiological saline in 2 mL/kg, […] The animals were executed after 6 h, laparotomized, esophagus was ligated near to diaphragmatic muscle, whole stomach was taken out, washed to remove blood, stomach contents were poured out, the acidity degree of gastric acid was tested with pH test paper, the stomach contents was then centrifuged at 3000 rpm for 10 min. The volume of the supernatant was metered, and 1 mL of the supernatant was titrated with 0.01 mol/L NaOH solution, phenolphthalein was used as indicator, the volume of NaOH was recorded, and the total acidity degree and total acid output of gastric juice were calculated. Gastric juice total acidity degree (mmol/L)=consumed volume of NaOH solution (mL)*0.01 mol/L (NaOH concentration)/1 mL (supernatant volume)*1000; 1 h total acid output (mmol/h)=total acidity degree (mmol/L)*gastric juice volume (mL)/6 h/1000.

[2] = system: reflux esophagitis in rats; experiment: Effects on reflux esophagitis in rats; format: in vivo, Wistar rats; design: Esophagitis index: scale not given here; details: for Esophagitis index / Esophagus injury score / Injury status: 20 mg/kg through duodenum, 5 h; for Esophagitis index: 6 rats per group, average ± SD; for Esophagus injury score / Injury status: individual rats; for Protection effect on reflux esophagitis in rats (conclusion): in comparison with the model group
Description: The rats were etherized, laparotomized, pylorus ligated, and ligated at the part between glandular stomach and rumen. After ligation, the drugs were immediately administered through duodenum, in which the groups of the test samples were administered with test samples in 20 mg/kg, the model group was administered with the same volume of solvent, and the abdomens were then closed. The rats were released to the fasting cage, subjected to fasting and water deprivation for 5 h and then executed by air embolism. The stomach and esophagus were taken out together, fixed with 1% formaldehyde in esophagus for 1 h, and then the injury of esophagus was observed.

[3] = In vivo pharmacokinetic test in rats; design: species or system Wistar rats; details: rat
Description: Experimental animals: male Wistar rats, 6 rats/compound, body weight 180-220 g, purchased from Shandong University, certificate no.: SCXK ( ? ) 20090001.
Experimental samples: Compound 1, Compound 29 and Compound 30 of the present invention, each of them is prepared according to the methods of the above examples, and dissolved in physiological saline before test.
Administration: as for intravenous push (I.V), Compound 1, Compound 29, Compound 30 were administered in a dose of 5 mg/kg, and a volume of 2 mL/kg; as for intragastric administration (P.O), Compound 1, Compound 29, Compound 30 were administered in a dose of 5 mg/kg, and a volume of 2 mL/kg. The rats were fasted without water deprivation for […] administration, and fed after 4 hours from the administration.
Blood collection: 0 h, 0.083 h, 0.25 h, 0.5 h, 1 h, 2 h, 4 h, 8 h, 24 h, at each time point, about 150 μL of whole blood was collected, centrifuged at 4° C. and 8000 rpm for 6 min using a low-temperature high-speed centrifuge, the separated plasma was frozen and stored at −80° C. in a refrigerator.
Analysis of plasma samples: as for Compound 1, Compound 29, Compound 30, 50 μL of plasma was taken, added with 120 μL internal standard solution (Tolbutamide, 5 ng/mL MeOH solution), subjected to 1500 rpm vortex for 2 min, then centrifuged at 14000 rpm for 5 min, the supernatant was collected, and analyzed by using LC-MS/MS. Calculation formula: absolute bioavailability F %=[AUC]INF(PO)*Dose(IV)/[AUC]INF(IV)*Dose(PO)
Wherein, AUCINF represents area under drug-time curve0→∞; Cmax represents peak drug concentration in blood; Tmax represents a time for reaching peak drug concentration in blood; F % represents absolute bioavailability; CL represents clearance rate; Vss represents apparent volume of distribution; T1/2 represents half-life period.

[4] = Table 3, 20 mg/kg through duodenum, 6 h after pylorus ligation
[5] = Table 3, 20 mg/kg through duodenum, 6 h after pylorus ligation, average ± SD
[6] = Table 4, 30 mg/kg through duodenum, 6 h
[7] = Table 4, 30 mg/kg through duodenum, 6 h, SD in neighbouring cell

With `COCCCOc1ccnc(C[S+]([O-])c2nc3cc4c(cc3[nH]2)OCC4)c1C` (stereo not drawn) [Compound 1 (sodium salt)] the Gastric juice volume [1, 4] was 3.33 ± 0.97 mL, the Total acid output [1, 4] was 0.0276 ± 0.0194 mmol/h and the Total acidity degree [1, 4] was 47.85 ± 24.38 mmol/L. The “Acidity degree (pH value)” value [1, 5] was 3.14 ± 1.31 pH value, the Gastric juice volume [1, 6] was 3.60 ± 0.88 mL and the “Volume of supernatant of gastric juice” value [1, 6] was 2.92 ± 0.71 mL. For the same molecule, the “Acidity degree (pH value)” value [1, 7] was 3.90 pH value, the Total acid output [1, 7] was 0.0141 mmol/h and the Total acidity degree [1, 7] was 28.98 mmol/L. The Total acidity degree ([1]; Table 5, 20 mg/kg, comparison with Compound 81 as control) was 54.52 ± 13.87 mmol/L, the Esophagitis index [2] was 0.00 ± 0.00 and the Esophagus injury score ([2]; female rats) was 0. For the same molecule, the Injury status ([2]; female rats) was “Normal”, the Esophagus injury score ([2]; male rats) was 0 and the Injury status ([2]; male rats) was “Normal”. For the same molecule, the clearance ([3]; male, Wistar, plasma, iv, rats, I.V, 5 mg/kg, read-out: CL (converted)) was 32.5 mL/min/kg, the half-life ([3]; male, Wistar, plasma, iv, rats, I.V, 5 mg/kg, read-out: T½ (converted)) was 10.3 min and the Vd ([3]; male, Wistar, plasma, iv, rats, I.V, 5 mg/kg, read-out: Vss) was 0.255 L/kg. For the same molecule, the bioavailability ([3]; male, Wistar, plasma, po, rats, P.O 5 mg/kg vs I.V 5 mg/kg, read-out: F % (absolute bioavailability)) was 26.2%, the AUC(0-inf) ([3]; male, Wistar, plasma, po, rats, P.O, 5 mg/kg, read-out: AUCinf) was 677 ng·h/mL and the Cmax ([3]; male, Wistar, plasma, po, rats, P.O, 5 mg/kg, read-out: Cmax) was 1860 ng/mL. It also gave a Tmax ([3]; male, Wistar, plasma, po, rats, P.O, 5 mg/kg, read-out: Tmax) of 4.98 to 15 min.

With `COCCCOc1ccnc(C[S+]([O-])c2nc3cc4c(cc3[nH]2)OCC4)c1C` (stereo not drawn) [Compound 1, 2-[[4-(3-methoxylpropoxy)-3-methylpyridin-2-yl]methylsulfinyl]-6,7-dihydro-3H-benzofuro[5,6-d]imidazole] the “Inhibition effect on the gastric acid secretion in pylorus ligated rats (conclusion)” value (from here on “Inhibition effect”) ([1]; 20 mg/kg) was “significant inhibition effect”, the “Protection effect on reflux esophagitis in rats (conclusion)” value ([2]; 20 mg/kg) was “good protection effects on esophagus” and the “In vivo pharmacokinetic properties (conclusion)” value ([3]; in vivo) was “good in vivo pharmacokinetic properties”.

`COCCCOc1ccnc(C[S+]([O-])c2nc3cc4c(cc3[nH]2)OCCO4)c1C` (stereo not drawn) [Compound 6 (sodium salt)] gave a Gastric juice volume [1, 4] of 10.28 mL, a Total acid output [1, 4] of 0.0807 mmol/h and a Total acidity degree [1, 4] of 103.16 mmol/L. The “Acidity degree (pH value)” value [1, 5] was 1.82 pH value, the Esophagitis index [2] was 3.00 ± 1.27 and the Esophagus injury score ([2]; 20 mg/kg, female rats) was 4 (4 scores for injury area exceeding 75% or perforation) and 2 (2 scores for injury area of 25-50%) and 1 (1 score for injury area of 1-25%). The Esophagus injury score ([2]; 20 mg/kg, male rats) was 3 (3 scores for injury area of 50-75%) and 4 (4 scores for injury area exceeding 75% or perforation) (2×).

In the case of `COCCCOc1ccnc(C[S+]([O-])c2nc3cc4c(cc3[nH]2)OCCO4)c1C` (stereo not drawn) [Compound 6, 2-[[4-(3-methoxylpropoxy)-3-methylpyridin-2-yl]methylsulfinyl]-6,7-dihydro-1H-[1,4]dioxino[2,3-f]benzo[d]imidazole], the “Inhibition effect” value ([1]; 20 mg/kg) is reported as “do not show inhibition effect” and the “Protection effect on reflux esophagitis in rats (conclusion)” value ([2]; 20 mg/kg) is reported as “no protection effect”.

With `COc1c(C)cnc(C[S+]([O-])c2nc3cc4[nH]cnc4cc3[nH]2)c1C` (stereo not drawn) [Compound 8, 2-[(3,5-dimethyl-4-methoxylpyridin-2-yl)methylsulfinyl]-1H,5H-imidazo[5,4-f]benzo[d]imidazole] the “Inhibition effect” value ([1]; 20 mg/kg) was “do not show inhibition effect”, the Gastric juice volume [1, 4] was 6.10 mL and the Total acid output [1, 4] was 0.1242 mmol/h. The Total acidity degree [1, 4] was 120.92 mmol/L and the “Acidity degree (pH value)” value [1, 5] was 1.71 pH value.
